# Test results: ChEMBL document CHEMBL3046013, “Pyrithiobac reduces control of green foxtail (Setaria viridis) and bristly foxtail (Setaria verticillata) by propaquizafop” (2009)
# Key:
# Format in all cases: functional
# Set-up in all cases: scale not given: the % may be the effect or the level left
# [1] = system: Setaria viridis; assay: Herbicidal activity against Setaria viridis (green foxtail) assessed as reduction of fresh weight at 75 g ai/ha after 45 days relative to control
# [2] = system: Setaria verticillata; assay: Herbicidal activity against Setaria verticillata assessed as reduction of fresh weight at 150 g ai/ha after 45 days relative to control
# [3] = system: Setaria verticillata; assay: Herbicidal activity against Setaria verticillata assessed as reduction of fresh weight at 125 g ai/ha after 45 days relative to control
# [4] = system: Setaria viridis; assay: Herbicidal activity against Setaria viridis (green foxtail) assessed as reduction of fresh weight at 125 g ai/ha after 45 days in presence of 68 g ai/ha of pyrithiobac relative to control
# [5] = system: Setaria viridis; assay: Herbicidal activity against Setaria viridis (green foxtail) assessed as reduction of fresh weight at 75 g ai/ha after 45 days in presence of 68 g ai/ha of pyrithiobac and ammonium sulphate relative to control
# [6] = system: Setaria viridis; assay: Herbicidal activity against Setaria viridis (green foxtail) assessed as reduction of fresh weight at 150 g ai/ha after 45 days in presence of 68 g ai/ha of pyrithiobac relative to control
# [7] = system: Setaria verticillata; assay: Herbicidal activity against Setaria verticillata assessed as reduction of fresh weight at 75 g ai/ha after 45 days relative to control in presence of ammonium sulphate
# [8] = system: Setaria verticillata; assay: Herbicidal activity against Setaria verticillata assessed as reduction of fresh weight at 75 g ai/ha after 45 days relative to control
# [9] = system: Setaria viridis; assay: Herbicidal activity against Setaria viridis (green foxtail) assessed as reduction of fresh weight at 125 g ai/ha after 45 days relative to control
# [10] = system: Setaria verticillata; assay: Herbicidal activity against Setaria verticillata assessed as reduction of fresh weight at 75 g ai/ha after 45 days in presence of 68 g ai/ha of pyrithiobac treated 1 day before compound challenge relative to control
# [11] = system: Setaria viridis; assay: Herbicidal activity against Setaria viridis (green foxtail) assessed as reduction of fresh weight at 75 g ai/ha after 45 days in presence of 68 g ai/ha of pyrithiobac treated 1 day after compound challenge relative to control
# [12] = system: Setaria viridis; assay: Herbicidal activity against Setaria viridis (green foxtail) assessed as reduction of fresh weight at 150 g ai/ha after 45 days relative to control
# [13] = system: Setaria verticillata; assay: Herbicidal activity against Setaria verticillata assessed as reduction of fresh weight at 150 g ai/ha after 45 days in presence of 68 g ai/ha of pyrithiobac relative to control
# [14] = system: Setaria viridis; assay: Herbicidal activity against Setaria viridis (green foxtail) assessed as reduction of fresh weight at 75 g ai/ha after 45 days in presence of 68 g ai/ha of pyrithiobac treated 1 day before compound challenge relative to control
# [15] = system: Setaria viridis; assay: Herbicidal activity against Setaria viridis (green foxtail) assessed as reduction of fresh weight at 100 g ai/ha after 45 days relative to control
# [16] = system: Setaria verticillata; assay: Herbicidal activity against Setaria verticillata assessed as reduction of fresh weight at 75 g ai/ha after 45 days in presence of 68 g ai/ha of pyrithiobac relative to control
# [17] = system: Setaria viridis; assay: Herbicidal activity against Setaria viridis (green foxtail) assessed as reduction of fresh weight at 75 g ai/ha after 45 days in presence of 68 g ai/ha of pyrithiobac relative to control
# [18] = system: Setaria verticillata; assay: Herbicidal activity against Setaria verticillata assessed as reduction of fresh weight at 75 g ai/ha after 45 days in presence of 68 g ai/ha of pyrithiobac treated 1 day after compound challenge relative to control
# [19] = system: Setaria viridis; assay: Herbicidal activity against Setaria viridis (green foxtail) assessed as reduction of fresh weight at 75 g ai/ha after 45 days in presence of 68 g ai/ha of pyrithiobac treated 3 days before compound challenge relative to control
# [20] = system: Setaria verticillata; assay: Herbicidal activity against Setaria verticillata assessed as reduction of fresh weight at 100 g ai/ha after 45 days in presence of 68 g ai/ha of pyrithiobac relative to control
# [21] = system: Setaria verticillata; assay: Herbicidal activity against Setaria verticillata assessed as reduction of fresh weight at 75 g ai/ha after 45 days in presence of 68 g ai/ha of pyrithiobac treated 3 days before compound challenge relative to control
# [22] = system: Setaria verticillata; assay: Herbicidal activity against Setaria verticillata assessed as reduction of fresh weight at 100 g ai/ha after 45 days relative to control
# [23] = system: Setaria viridis; assay: Herbicidal activity against Setaria viridis (green foxtail) assessed as reduction of fresh weight at 100 g ai/ha after 45 days in presence of 68 g ai/ha of pyrithiobac relative to control
# [24] = system: Setaria viridis; assay: Herbicidal activity against Setaria viridis (green foxtail) assessed as reduction of fresh weight at 75 g ai/ha after 45 days in presence of 68 g ai/ha of pyrithiobac treated 3 days after compound challenge relative to control
# [25] = system: Setaria verticillata; assay: Herbicidal activity against Setaria verticillata assessed as reduction of fresh weight at 75 g ai/ha after 45 days in presence of 68 g ai/ha of pyrithiobac treated 3 days after compound challenge relative to control
# [26] = system: Setaria viridis; assay: Herbicidal activity against Setaria viridis (green foxtail) assessed as reduction of fresh weight at 75 g ai/ha after 45 days relative to control in presence of ammonium sulphate
# [27] = system: Setaria verticillata; assay: Herbicidal activity against Setaria verticillata assessed as reduction of fresh weight at 125 g ai/ha after 45 days in presence of 68 g ai/ha of pyrithiobac relative to control
structure (smiles),measurement,setting,value
CC(C)=NOCCOC(=O)[C@@H](C)Oc1ccc(Oc2cnc3cc(Cl)ccc3n2)cc1 [PROPAQUIZAFOP],Activity,[1],86%
same,Activity,[2],100%
same,Activity,[3],99%
same,Activity,[4],66%
same,Activity,[5],57%
same,Activity,[6],72%
same,Activity,[7],94%
same,Activity,[8],92%
same,Activity,[9],97%
same,Activity,[10],75%
same,Activity,[11],82%
same,Activity,[12],99%
same,Activity,[13],83%
same,Activity,[14],56%
same,Activity,[15],91%
same,Activity,[16],70%
same,Activity,[17],53%
same,Activity,[18],90%
same,Activity,[19],66%
same,Activity,[20],73%
same,Activity,[21],81%
same,Activity,[22],95%
same,Activity,[23],59%
same,Activity,[24],85%
same,Activity,[25],93%
same,Activity,[26],89%
same,Activity,[27],78%
